Non-standard residues stand in square brackets, D forms with d. Residues, ends and D or L forms follow the SMILES beside them. ξ: configuration not given here. dThr(3ξ) = CC(O)[C@@H](N)C(=O)O

In test [1] the test system is timed-pregnant CD-1 mice exposed to IL-1β. As to the kind of experiment: Intrauterine IL-1β-induced perinatal inflammation model: neonatal survival and fetal growth. In kind it is in vivo. As to conditions: for neonatal survival at birth: pups from IL-1β-treated dams (1 μg i.u., G16.5), compound 1 1 mg/Kg/12 h or Kineret 4 mg/Kg/12 h s.c., relative to vehicle. As for the experimental part: Timed-pregnant CD-1 mice were exposed to 1 μg of IL-1β at 16.5 days of gestation (G16.5). Compound 1 (Cmpd 1), Kineret or vehicle was injected subcutaneously in the neck skin 30 minutes before stimulation with IL-1β, and mice delivery was assessed every hour until term (G19-G19.5).
One-way ANOVA compared to IL-1β+Veh. ***p<0.001. Control (n=9), sham (n=7), IL-1β (n=26), IL-1β+Compound 1 (n=22), IL-1β+Kin (n=11).
(§1) Intrauterine […] perinatal inflammation model. Timed-pregnant CD-1 mice at 16.5 days of gestation were steadily anesthetized with an isoflurane mask. After body hair removal from the peritoneal area, a 1.5 cm-tall median incision was performed with surgical scissors in the lower abdominal wall. The lower segment of the right uterine horn was then exposed and 1 μg of IL-1β was injected between two fetal membranes with care of not entering the amniotic cavity. The abdominal muscle layer was sutured and the skin closed with clips. One hundred μL of Compound 1 (1 mg/Kg/12 h), Kineret® (4 mg/Kg/12 h) or vehicle (sterile water) was injected subcutaneously in the neck 30 minutes before stimulation with IL-1β (to allow distribution of drugs to target tissues). Mice delivery was assessed every hour until term (G19-G19.5). Immediately after delivery, neonatal survival was assessed. Some pregnant mice were sacrificed before birth (24 h after the surgery) to either 1) perform caesarean section and photograph fetuses; 2) collect amniotic fluids; and 3) collect placentas. Only tissues and fluids from gestational sacs closer to the cervical end of the uterus were collected to ensure proximity with the IL-1β injection site. Tissues and fluids were snap-frozen in liquid nitrogen and kept at −80° C. for subsequent RNA purification or protein quantification by ELISA.

Test [2] deals with IL-1β, IL-6, IL-8 and PGF2α in amniotic fluid. As to the kind of experiment: ELISA of pro-inflammatory mediators in amniotic fluid 24 h after IL-1β injection. To be noted: for levels of all pro-inflammatory mediators (IL-1β, IL-6, IL-8, PGF2α) in amniotic fluid: relative to vehicle. The format is in vivo, mice. As for the experimental part: FIGS. 2A to 2D show the levels of the pro-inflammatory mediators IL-1β (FIG. 2A), IL-6 (FIG. 2B), IL-8 (FIG. 2C) and PGF2a (FIG. 2D) in the amniotic fluid (AF) collected 24 h after IL-1β injection and treatment with vehicle, Compound 1 or Kineret, as assessed by ELISA. One-way ANOVA compared to IL-1β+Veh. **p<0.01, ***p<0.001. STATS: n=4; 4 gestational sacs from 2 animals in each groups.
as §1
Murine ELISA assays. […] The enzymatic reaction was stopped after 30 minutes and the plate was read at 450 nm, with wavelength correction set to 570 nm.
A general note: In an ELISA, binding on a coated surface is turned into a signal by an enzyme label.

For test [3], the system named is IL-1β, IL-6, IL-8 and PGF2α in neonatal lungs. As to the kind of experiment: ELISA of pro-inflammatory mediators in lungs of neonates. In kind it is in vivo, mice. As to conditions: neonates from IL-1β-treated dams; tissue collected at birth. As for the experimental part: FIGS. 3A to 3D show the levels of the pro-inflammatory mediators IL-1p (FIG. 3A), IL-6 (FIG. 3B), IL-8 (FIG. 3C) and PGF2a (FIG. 3D) in the lungs of neonates from sham and IL-1β-treated dams administered with vehicle, Compound 1 or Kineret, as assessed by ELISA. One-way ANOVA compared to IL-1β+Veh. *p<0.05, **p<0.01. n=4 pups in each groups.
(§2) Murine ELISA assays. The ELISA assay was performed using mouse Quantikine™ ELISA kits against IL-1β or IL-6 (R&D Systems®; #MLBOOC, M6000B), IL-8 and PGF2α (MyBioSource®; #MBS261967, #MBS264160) according to the manufacturer's instructions. Briefly, tissues (lungs, intestines and brains) collected at birth were homogenized in RIPA buffer containing proteases and 50 μL of either lung, intestine, or brain samples, recombinant mouse IL-1β, IL-6, IL-8 or PGF2α positive control or decreasing concentrations of a recombinant mouse IL-1β, IL-6, IL-8 or PGF2α standard were loaded into a 96-well plate pre-coated with a monoclonal anti-mouse IL-1β antibody and incubated for 2 hours at ambient temperature. Wells were washed 5 times and incubated with an enzyme-linked mouse polyclonal antibody specific to murine IL-1β for 2 hours. After another washing step, a substrate solution was added. The enzymatic reaction was stopped after 30 minutes and the plate was read at 450 nm, with wavelength correction set to 570 nm.

Test [4] deals with IL-1β, IL-6, IL-8 and PGF2α in neonatal intestines. As to the kind of experiment: ELISA of pro-inflammatory mediators in intestines of neonates. In kind it is in vivo, mice. As to conditions: neonates from IL-1β-treated dams; for levels of gut IL-6: relative to control. The protocol: FIGS. 5A to 5D show the levels of the pro-inflammatory mediators IL-1p (FIG. 5A), IL-6 (FIG. 5B), IL-8 (FIG. 5C) and PGF2a (FIG. 5D) in the intestines of neonates from sham and IL-1β-treated dams administered with vehicle, Compound 1 or Kineret, as assessed by ELISA. One-way ANOVA compared to IL-1β+Veh. *p<0.05. n=4 pups in each groups.
as §2

Test [5] has as its system IL-1β, IL-6, IL-8 and PGF2α in fetal brain tissue. Kind of test: ELISA of pro-inflammatory mediators in brain of neonates. In kind it is in vivo, mice. To be noted: neonates from IL-1β-treated dams. The protocol: FIGS. 8A to 8D show the levels of the pro-inflammatory mediators IL-1β (FIG. 8A), IL-6 (FIG. 8B), IL-8 (FIG. 8C) and PGF2a (FIG. 8D) in fetal brain tissue of neonates from sham and IL-1β-treated dams administered with vehicle, Compound 1 or Kineret, as assessed by ELISA. One-way ANOVA compared to IL-1β+Veh. *p<0.05, **p<0.01, ***p<0.001. n=4 pups in each groups.
as §2

As to `CC(C)C[C@@H](NC(=O)[C@@H](CCC(=O)O)NC(=O)[C@H](NC(=O)[C@H](NC(=O)[C@@H](Cc1ccc(O)cc1)NC(=O)[C@H](N)CCCNC(=N)N)C(C)O)C(C)C)C(=O)N[C@H](C)C(N)=O` (stereo partly drawn) [compound 1] (H-[dR][dY][dThr(3ξ)][dV][dE][dL][dA]-NH2), in test [1] (caesarean section of dams after 24 h exposition to intrauterine IL-1β), the “IL-1β-induced growth arrest of fetuses” value is “prevents this detrimental effect”. Further, the “neonatal survival at birth” value in test [1] is given as “significantly increased neonatal survival”. The “reducing neonatal death, inflammation and inflammation-mediated damages in neonatal organs, compared with Kineret” value in test [1] (summary statement) is listed as “significantly more effective”. Also, the “levels of all pro-inflammatory mediators (IL-1β, IL-6, IL-8, PGF2α) in amniotic fluid” value in test [2] was “significant reduction”. The “levels of all cytokines tested (IL-1β, IL-6, IL-8, PGF2α) in neonatal lungs” value in test [3] is recorded as “significant reduction”. Further, in test [4], the “increased IL-1β and IL-8 in neonatal intestines” value was “alleviated this effect”; the “levels of gut IL-6” value is recorded as “clear trend toward decreased levels”. Besides, in test [5], the “increased IL-1β and IL-6 levels in the brain” value is “alleviated this effect”; the “increased IL-8 levels in the brain” value is listed as “alleviated this effect”.

Consider “Kineret: recombinant form of the human interleukin-1 receptor antagonist (IL-1Ra), purchased from Swedish Orphan Biovitrum AB”, for which the “neonatal survival at birth” value in test [1] is “but not Kineret®, significantly increased neonatal survival”. Also, in test [2] (compared with compound 1), the “IL-8 levels in amniotic fluid, extent of effect” value is on record as “at a lower extent relative to compound 1”. Moreover, the “levels of all pro-inflammatory mediators (IL-1β, IL-6, IL-8, PGF2α) in amniotic fluid” value in test [2] was “only had a significant effect on IL-8 levels”. The “levels of all cytokines tested (IL-1β, IL-6, IL-8, PGF2α) in neonatal lungs” value in test [3] is given as “only effective at significantly decreasing lung IL-1β levels”. Further, in test [4], the “levels of gut IL-6” value was “not observed”. For the same compound, in test [5], the “increased IL-1β and IL-6 levels in the brain” value is “ineffective at significantly reducing”; the “increased IL-8 levels in the brain” value was “although significant, was weaker than that obtained with compound 1”.

The values above are taken from patent US20210322509A1, “Methods for Reducing Perinatal Morbidity and / or Mortality” (CHU SAINTE-JUSTINE, priority 2016, published 2021).
